Entries after “also recorded” stand apart in the source; their conditions may differ.
Columns and labels:
RAF kinase = conditions: in vitro and in cells; cited from earlier work
Excerpt: The sequence of braftide mirrors the residues spanning the tail end of the αC helix and a region known as the αC helix–β4 loop, which includes three key residues: BRAF R509, L515, and M517, critical for RAF dimerization.

[1] = tested on: BRAF–CDC37/HSP90 chaperone complex; assay: Co-IP of BRAF-FLAG with endogenous CDC37–HSP90 chaperone complex; type: cell-based, human (HEK293); conditions: HEK293, 50 μM braftide, 4 h, bortezomib pretreatment, three biological replicates
Description: (§1) HEK293 cells were seeded at 1(10)^6 cells per well for a 6-well plate or 5(10)^6 for 10 cm dishes and incubated until 40% to 60% confluency. Transfection was carried out using a 1:3 DNA:PEI-MAX ratio in OPTI-MEM and allowed 48 h for protein expression. For peptide assays, 48 h post-transfection, cells were treated with TAT–braftide carried in OPTI-MEM at indicated concentrations. Cells were harvested in cold PBS. Harvested cells were lysed in 4% SDS or modified radioimmunoprecipitation assay (RIPA) for co-IP experiments. Quantification of total protein by the bicinchoninic acid assay was carried out according to the manufacturer's protocols (Pierce; catalog no.: 23225).
(§2) Transfected HEK293 cells were treated with the indicated treatments and harvested in cold PBS. […] Samples were analyzed via immunoblot.
(§3) Western blot band densities were quantified with ImageJ software (National Institutes of Health) and normalized to the indicated loading control. Statistical significance was determined through one-/two-way ANOVA, where indicated, followed by Tukey's honest significant difference post hoc test with corresponding p values (∗p < 0.05, ∗∗p < 0.002, ∗∗∗p < 0.0002, and ∗∗∗∗p < 0.0001). […]

HEK293 cells = assay: Annexin V apoptosis assay, HEK293; type: cell-based, human; conditions: 0, 5, 10, 25, 50, 75, and 100 μM braftide, 4 h, n = 3
Description: (§4) HEK293 cells and HCT116 cells were treated with either control or braftide at the indicated concentrations for 4 h. After treatment, both the floating and adherent cell populations were collected and adjusted with PBS (final concentration: 1 × 10^5 cells/ml). The cells were then mixed with the Annexin V (Cytex; FCCH100108) reagent in a 5:1 ratio (100 μl of cells mixed with 20 μl of Annexin V reagent) and allowed to stain in the dark, at room temperature for 15 min. The cells were then analyzed on a Guava Muse Cell Analyzer (Millipore).

WM3629 cells [2] = conditions: WM3629, reported; read-out: EC50, braftide, WM3629; cited from earlier work
Excerpt: Based on the observed synergistic effects of inhibiting the ternary complex, the antiproliferative effects were explored using combinatorial treatment in two RAF-dimer–dependent cell lines: HCT116 and WM3629. HCT116 cells mainly rely on the wildtype BRAF–CRAF heterodimer and BRAF–BRAF homodimer to relay the MAPK signal, whereas WM3629 cells contain the BRAF D594G mutant, which is a kinase-dead mutant and depends on dimerization with CRAF for activation ([34]).

CDC37–CRAF interaction [3] = assay: Co-IP of CDC37-FLAG with CRAF-HA in HEK293; type: cell-based, human (HEK293); conditions: HEK293, 25 μM braftide, bortezomib pretreatment
Description: as §1, §2, §3

CDC37–HSP90 interaction = assay: Co-IP of CDC37-FLAG with HSP90 in HEK293; type: cell-based, human (HEK293); conditions: HEK293, 25 μM braftide, bortezomib pretreatment
Description: as §1, §2, §3

CRAF = CRAF ubiquitination (IP of MBP-CRAF-FLAG, ubiquitin immunoblot); type: cell-based, human (HEK293); conditions: HEK293, MBP-CRAF-FLAG, 50 μM braftide, bortezomib pretreatment
Description: as §1, §2, §3

[4] = tested on: MAPK proteins (BRAF, CRAF, MEK, pMEK, ERK, pERK); assay: Immunoblot of MAPK proteins in HCT116 cells; type: cell-based
Description: (§5) Western blot band densities were quantified with ImageJ software (National Institutes of Health) and normalized to the indicated loading control. Statistical significance was determined through one-/two-way ANOVA, where indicated, followed by Tukey's honest significant difference post hoc test with corresponding p values (∗p < 0.05, ∗∗p < 0.002, ∗∗∗p < 0.0002, and ∗∗∗∗p < 0.0001). All graph bars represent the mean ± SD with individual data points per biological replicate with corresponding p values.

CDC37–BRAF interaction = assay: Co-IP of CDC37-FLAG with BRAF-V5 in HEK293; type: cell-based, human (HEK293); conditions: HEK293, 25 μM braftide, bortezomib pretreatment
Description: as §1, §2, §3

HCT116 cells [5] = assay: WST-1 cell viability assay, HCT116; type: cell-based; conditions: HCT116, WST-1, 24 h
Description: (§6) HCT116 and WM3629 cells were seeded onto polylysine-coated, clear-bottomed, 96-well plates at 15(10)^3 cells per well and allowed to incubate for 24 h. Cells were treated with braftide and 17-AAG mixtures at indicated concentrations for 24 h (37 °C). The WST-1 cell viability assay was carried out according to the manufacturer's protocols (Roche; 11644807001) for 4 h, and absorbance readings were taken at 450 nM in a CLARIOstar plate reader. For the dose–response curves of braftide and 17-AAG, the data were fit to the 4-parameter logistic equation (dose–response fitting equation) in GraphPad Prism (Dotmatics): y=A1+(A2−A1)÷(1+10^(LOGx0−x)p)
(§7) Error bars are indicative of the SEM of each point.

HCT116 cells [6] = assay: Annexin V apoptosis assay, HCT116; type: cell-based; conditions: for apoptotic cell death, braftide + 17-AAG combination versus 17-AAG monotherapy: HCT116, Annexin V, n=3, Fig. S12, B and C
Description: as §4

WM3629 cells [7] = assay: WST-1 cell viability assay, WM3629; type: cell-based; conditions: WM3629, WST-1, 24 h
Description: as §6, §7

CDC37–AKT1 interaction = assay: Co-IP of CDC37-FLAG with AKT1; type: cell-based, human (HEK293); conditions: HEK293, 25 µM braftide, bortezomib pretreated, n=4
Description: as §1, §2, §3

CDC37–CRAF interaction [8] = assay: Co-IP of CDC37-FLAG with CRAF-HA in HCT116; type: cell-based; conditions: HCT116, 5 µM braftide, three biological replicates
[9] = tested on: selected kinases in HCT116 cells; assay: Immunoblot of selected kinases in HCT116 cells; type: cell-based; conditions: Western blot; for protein levels of Chk2, PKCδ, and SRPK1: HCT116, braftide, Fig. S12A
Description: as §5

HCT116 cells [10] = conditions: HCT116, previously reported, readout not given; read-out: EC50, braftide, HCT116; cited from earlier work
Excerpt: Our findings highlight the therapeutic potential of targeting CDC37–client kinase interactions, as oncogenic kinases are intrinsically unstable and thus are more dependent on their association with the HSP90–CDC37 chaperone complex for stability and activation compared with their wildtype counterparts ([4]). […] HCT116 cells harbor an upstream KRAS […]–activating mutation, with a previously reported braftide ...

GRKKRRQRRRPQ-miniPEG-TRHVNILLFM [Braftide]
RAF kinase activity (RAF kinase): inhibits RAF kinase activity | paradoxical activation induced by ATP-competitive inhibitors (RAF kinase): mitigates paradoxical activation induced by ATP-competitive inhibitors, both in vitro and in cells | association of BRAF with CDC37 and HSP90 [1]: reduced their association with CDC37 and HSP90 compared with the nontreated control | apoptosis (Annexin V), HEK293 (HEK293 cells): triggers apoptosis | apoptosis (Annexin V), HEK293 (HEK293 cells; listed as braftide): triggered dose-dependent apoptosis | EC50 (WM3629 cells [2]): 11.1 ± 1.12 µM | CDC37–CRAF complex (CDC37–CRAF interaction [3]): reduced the CDC37–client BRAF–CRAF complex | CDC37–HSP90 interaction (CDC37–HSP90 interaction): maintaining the CDC37–HSP90 interaction | CRAF ubiquitination (CRAF): increased CRAF ubiquitination | inhibition by monotherapy at 500 nM ([4]; HCT116, 500 nM single agent, immunoblot): Neither 17-AAG nor braftide monotherapy exhibited obvious inhibition | MAPK pathway protein levels, proteomics samples ([4]; HCT116, 10 µM braftide, 1 hr, 37°C, n=3): decreases MAPK pathway protein levels | CDC37–BRAF complex (CDC37–BRAF interaction): reduced the CDC37–client BRAF–CRAF complex | synergy of braftide and 17-AAG, HCT116 (HCT116 cells [5]): synergy between braftide and 17-AAG | apoptosis (Annexin V), HCT116 (HCT116 cells [6]; 0, 5, 10, 25, 50, 75, and 100 μM braftide, 4 h, n = 3, listed as braftide): triggered dose-dependent apoptosis; also recorded: HCT116 cells showed higher sensitivity to braftide compared with HEK293 | apoptotic cell death, braftide + 17-AAG combination versus 17-AAG monotherapy (HCT116 cells [6]): synergizes with 17-AAG in HCT116 cells to trigger cell death at lower treatment concentrations | apoptotic cell death, braftide + 17-AAG combination versus 17-AAG monotherapy (HCT116 cells [6]; listed as braftide): significant increase in apoptotic cell death with the combination therapy compared with monotherapy | synergy of braftide and 17-AAG, WM3629 (WM3629 cells [7]): synergy between braftide and 17-AAG | association of CDC37 with AKT1 (CDC37–AKT1 interaction): disrupts client AKT1 from CDC37-FLAG in HEK293 cells | association of CDC37 with AKT1 (CDC37–AKT1 interaction; listed as braftide): reduced association of CDC37 with AKT1 | CDC37–CRAF interaction (CDC37–CRAF interaction [8]): decreases its association with coimmunoprecipitated BRAF-V5 and CRAF-HA | CDC37–CRAF interaction (CDC37–CRAF interaction [8]; listed as braftide): reduced the CDC37–RAF interaction at lower doses than in HEK293 cells | protein expression levels of downregulated kinases ([9]; HCT116, 10 μM braftide, 1 h, n = 9): reduced protein expression levels of GSK3α, S6, AKT1, TAK, FAK, BRAF, CRAF, MEK1/2, and ERK1/2 | protein levels of Chk2, PKCδ, and SRPK1 [9]: unaffected by Braftide treatment | protein levels of Chk2, PKCδ, and SRPK1 ([9]; listed as braftide): protein levels of these kinases remain unchanged after braftide treatment | EC50 (HCT116 cells [10]): 7.1 ± 0.5 µM
